# Data from patent US20100092456A1, “METHODS OF TREATMENT” (priority 2006, published 2010).
# Tests used:
# [1] = tested on: PtdIns4P and PtdIns5P in the CEF of MEL cells; experiment: Mass assay of PtdIns4P and PtdIns5P in the CEF of MEL cells with or without UV irradiation; format: cell-based, Murine; details: MEL cells preincubated with wortmannin (200 nM and 5 μM) or curcumin (100 μM); 200 J/m UV; CEF after 30 minutes
# Description: (§1) D) MEL cells were preincubated with either vehicle (DMSO) or wortmannin (200 nM and 5 μM) were irradiated with 200 J/m of UV light. After 30 minutes the CEF was isolated and a mass assay was used to determine the levels of PtdIns4P and PtdIns5P (expressed as % of control non-irradiated cells. The results are calculated from 3 independent experiments).
# as §1, with “E)” for “D)”, “(ethanol)” for “(DMSO)”, “curcumin (100” for “wortmannin (200 nM and 5”, “irradiation.” for “light.”, “control, non curcumin-treated nor non UV-irradiated” for “control non-irradiated”
# C) MEL cells were transiently transfected to express EGFP, EGFP-type II b PIP kinase and EGFP-IpgD/IpgE. In addition MEL cells were transfected with pSuper-IIβRNAi. […] A mass assay was used to determine the level of PtdIns5P (expressed as % of control non-irradiated cells. The results are calculated from 3 independent experiments). […]
# MEL cells were washed, twice in ice cold PBS before their fractionation using a detergent-free hypotonic buffer. […] The protein content of all fractions was determined using the Bradford reagent (BioRad). PtdIns4P and PtdIns5P were measured using in vitro mass assays employing recombinant type I and type II PIP kinases, respectively. […]
# PIKfyve = PIKfyve (Homo sapiens, UniProt Q9Y2I7); details: background statement; cited from earlier work
# PIKfyve, sequence (Q9Y2I7 whole entry, species assumed): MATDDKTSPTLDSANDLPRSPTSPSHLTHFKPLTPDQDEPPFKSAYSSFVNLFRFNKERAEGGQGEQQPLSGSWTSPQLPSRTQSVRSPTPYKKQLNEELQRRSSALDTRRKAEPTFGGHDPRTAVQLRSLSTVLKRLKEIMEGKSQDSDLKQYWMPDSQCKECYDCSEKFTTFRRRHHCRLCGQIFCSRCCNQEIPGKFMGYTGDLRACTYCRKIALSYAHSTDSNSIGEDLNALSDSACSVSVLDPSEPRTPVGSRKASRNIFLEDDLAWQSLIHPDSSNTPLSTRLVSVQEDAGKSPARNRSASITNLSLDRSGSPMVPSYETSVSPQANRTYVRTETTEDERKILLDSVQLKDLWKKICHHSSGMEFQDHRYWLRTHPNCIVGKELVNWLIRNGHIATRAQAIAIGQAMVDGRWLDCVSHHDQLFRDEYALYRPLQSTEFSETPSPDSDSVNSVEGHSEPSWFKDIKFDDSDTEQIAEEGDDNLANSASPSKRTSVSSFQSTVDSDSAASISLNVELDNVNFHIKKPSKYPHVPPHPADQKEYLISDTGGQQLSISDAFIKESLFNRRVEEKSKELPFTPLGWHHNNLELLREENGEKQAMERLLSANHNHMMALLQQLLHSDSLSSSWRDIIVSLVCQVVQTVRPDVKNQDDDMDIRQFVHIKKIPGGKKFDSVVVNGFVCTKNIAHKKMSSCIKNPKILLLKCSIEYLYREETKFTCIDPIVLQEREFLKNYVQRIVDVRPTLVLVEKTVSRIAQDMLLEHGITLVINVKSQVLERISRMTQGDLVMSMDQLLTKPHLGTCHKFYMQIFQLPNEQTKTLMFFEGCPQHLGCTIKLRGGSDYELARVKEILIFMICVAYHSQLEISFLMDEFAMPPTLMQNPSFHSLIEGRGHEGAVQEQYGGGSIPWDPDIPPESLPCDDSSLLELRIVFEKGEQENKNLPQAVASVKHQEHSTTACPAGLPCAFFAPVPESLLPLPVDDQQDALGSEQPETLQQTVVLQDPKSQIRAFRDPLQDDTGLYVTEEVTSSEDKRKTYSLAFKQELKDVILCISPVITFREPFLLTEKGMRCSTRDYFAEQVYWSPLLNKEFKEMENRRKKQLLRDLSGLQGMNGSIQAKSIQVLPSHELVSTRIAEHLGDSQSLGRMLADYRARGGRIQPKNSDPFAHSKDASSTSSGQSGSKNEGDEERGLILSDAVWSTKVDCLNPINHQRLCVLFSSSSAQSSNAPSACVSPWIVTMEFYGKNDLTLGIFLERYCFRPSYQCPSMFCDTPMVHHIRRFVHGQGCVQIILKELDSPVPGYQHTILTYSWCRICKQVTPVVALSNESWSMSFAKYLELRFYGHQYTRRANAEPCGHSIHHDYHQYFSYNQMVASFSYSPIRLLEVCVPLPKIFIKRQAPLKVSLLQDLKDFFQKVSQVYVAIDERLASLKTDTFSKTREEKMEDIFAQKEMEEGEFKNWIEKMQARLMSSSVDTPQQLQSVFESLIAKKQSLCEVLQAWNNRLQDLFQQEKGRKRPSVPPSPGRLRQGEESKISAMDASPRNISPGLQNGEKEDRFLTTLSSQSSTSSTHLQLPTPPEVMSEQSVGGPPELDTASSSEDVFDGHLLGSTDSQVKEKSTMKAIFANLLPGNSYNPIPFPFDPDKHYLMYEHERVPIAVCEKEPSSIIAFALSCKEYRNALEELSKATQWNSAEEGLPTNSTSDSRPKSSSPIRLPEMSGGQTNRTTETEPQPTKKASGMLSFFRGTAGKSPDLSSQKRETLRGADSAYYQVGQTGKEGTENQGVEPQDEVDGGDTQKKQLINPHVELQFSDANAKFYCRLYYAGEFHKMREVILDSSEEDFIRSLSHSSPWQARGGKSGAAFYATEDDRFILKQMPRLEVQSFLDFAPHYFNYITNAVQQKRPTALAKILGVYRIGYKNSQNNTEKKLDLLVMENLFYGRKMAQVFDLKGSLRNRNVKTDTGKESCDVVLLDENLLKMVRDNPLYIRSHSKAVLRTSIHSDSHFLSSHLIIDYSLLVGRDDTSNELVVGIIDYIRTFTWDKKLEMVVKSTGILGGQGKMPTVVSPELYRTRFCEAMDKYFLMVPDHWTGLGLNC
# MEL cells = experiment: MEL cell viability and cell cycle profile; format: cell-based, Murine
# Description: Ethanol fixed cells were incubated with prodium iodide (20 μg/ml) and RNAse (10 μg/ml) before cell cycle analysis by flow cytometry. Proteins were analysed by standard western blotting procedures employing the following antibodies: anti-tubulin and anti-flag (both from Sigma), anti-actin (Chemicon International), anti-histone 4 (Upstate Biotechnology), anti-phospho p54, anti-phospho p46, anti-phospho p38, total p54, total p46 and total p38 (all from Cell Signalling Technology) anti-ING2, anti EGFP (Clontech), anti-type II β PIP kinase, anti-GST and anti-myc (both generated in house).
# To investigate the sub-nuclear localisation of UV-induced nuclear PtdInsPs, we fractionated nuclei to generate nucleoplasm (containing nuclear membranes and soluble nuclear material) and the chromatin enriched fraction (CEF) (FIG. 1c inset). […] Thus, the PtdInsP pool present in the CEF is a target for regulation in response to cellular stress.
# ING2 = experiment: Western blot of endogenous ING2 associated with the CEF of MEL cells; format: cell-based, Murine; details: MEL cells; 200 J/m UV; NAC 5 mM 4 hours, wortmannin 200 nM and 5 μM, curcumin 100 μM
# Description: FIG. 4. A) Exponentially growing MEL cells were irradiated with either 200 J/m of UV light or 10 Gy of gamma radiation. After 30 minutes the CEF was isolated and the subjected to SDS-PAGE followed by transfer of the separated proteins to a nitrocellulose membrane. Western blotting for endogenous ING2 and histone 4 proteins was performed. Representative western blots are shown. B) Exponentially growing MEL cells were incubated in the absence or presence of N-acetyl cysteine (NAC) (5 mM) for 4 hours prior to a control irradiation or exposed to 200 J/m of UV light before the isolation of the CEF. Differentiated MEL cells were incubated in the absence or presence of H2O2 (500 μM) for 15 minutes prior to the isolation of the CEF. Proteins in the CEF were subjected to SDS-PAGE followed by transfer to a nitrocellulose membrane. Western blotting for endogenous ING2 and histone 4 proteins was performed. Representative western blots are shown. C) MEL cells were preincubated with either vehicle, wortmannin (200 nM and 5 μM) or curcumin (100 μM) were irradiated with 200 J/m of UV light. After 30 minutes the CEF was isolated and proteins were subjected to SDS-PAGE followed by transfer to a nitrocellulose membrane. Western blotting for endogenous ING2 and histone 4 proteins was performed. Representative western blots are shown. D) The CEF from transiently transfected MEL cells with either pSuper or pSuper-IIβRNAi was prepared. Proteins in the CEF were subjected to SDS-PAGE followed by transfer to a nitrocellulose membrane. […] Proteins were analysed by standard western blotting procedures employing the following antibodies: anti-tubulin and anti-flag (both from Sigma), anti-actin (Chemicon International), anti-histone 4 (Upstate Biotechnology), anti-phospho p54, anti-phospho p46, anti-phospho p38, total p54, total p46 and total p38 (all from Cell Signalling Technology) anti-ING2, anti EGFP (Clontech), anti-type II β PIP kinase, anti-GST and anti-myc (both generated in house).
smiles,measurement,setting,value
COc1cc(/C=C/C(=O)CC(=O)/C=C/c2ccc(O)c(OC)c2)ccc1O [curcumin],UV light-induced accumulation of PtdIns4P,[1],inhibited
same,UV light-induced accumulation of PtdIns5P,[1],inhibited
same,inhibition of PIKfyve,PIKfyve,able to inhibit
same,effect on MEL cell viability,MEL cells,no effect
same,effect on the cell cycle profile,"MEL cells; MEL cells, compound alone",no effect
same,UV-induced translocation of endogenous ING2 to the CEF,ING2,completely inhibited
